Read-outs that look alike come from different tables or passages of the source.

Test [1] can be described thus: Cell growth assay (WST-8) (Compounds B1-B278). Format: cell-based. The settings on record: T47D cell line, WST-8, 4 days, read-out: Cell Growth Inhibition in T47D cell line IC50. Here is the method: Cell Growth Assay. The cells are seeded at certain concentration (e.g., at 1500/well) in multi-well plates overnight. Cells are subsequently treated with the compounds. A certain period of time (e.g., 4 days) after the compound treatment, 10% WST-8 reagent is added to the culture medium and incubate under certain condiction (e.g., in a CO2 incubator at 37° C. for 2.5 hours). The absorbance is measured on each sample using a microplate reader at certain wavelength (e.g., 450 nm). The relative absorbance is calculated against the vehicle control from three individually repeats.
Cell Growth Assay. The cells were seeded at 1500/well in 96 well plates overnight. One day after the seeding, they were treated with indicated doses of compounds respectively. 4 days after the compound treatment, 10% WST-8 reagent was added to the culture medium and incubate in a CO2 incubator at 37° C. for 2.5 hours. Before reading, the plate was mixed gently on an orbital shaker for one minute to ensure homogeneous distribution of color. The absorbance was measured of each sample using a microplate reader at a wavelength of 450 nm. The relative absorbance was calculated against the vehicle control from three individually repeats.

In test [2] the target is ER (Homo sapiens (Human), UniProt P03372). As to the kind of experiment: In-cell western blot analysis of relative ER percentage (Compounds B1-B278). Format: cell-based. The settings on record: ER degradation, 16 hours, read-out: ICW DC50. The protocol: In-cell western blot analysis. Cells are seeded in multi-well plates (e.g., at 40,000 or 10,000 cells/well). Diluted compounds at certain concentration are added (final 0.5% DMSO) and cells are incubated for […] (e.g., 16 hours). Formaldehyde (e.g., PBS:FA=9:1) is added and followed by washing with PBS. The cells are blocked with Licor blocking buffer (Li-Cor). The relative ER percentage in treated cells are obtained by comparing the values of treated wells to those in untreated and DMSO-treated wells as 100%.
In-cell western blot analysis. a. seed cells in black-sided/clear bottom 96- or 384-well plates at 40,000 or 10,000 cells/well, overnight; b. add diluted compounds (final 0.5% DMSO), 16 hours. 16 h later, remove medium, add 100 μL or 25 μL of 3.7-4.0% formaldehyde (PBS:FA=9:1), RT 20 min, no shaking; c. wash with PBS, and permeabilized with 100 μL or 25 μL/well of 1×PBS+0.1% Triton X-100 10 minutes; d. block with 100 μL or 25 μL Licor blocking buffer (Li-Cor), RT 1 h, moderate shaking; d. Add 100 μL or 25 μL of anti-ER (cs-8644, 1:500-1,000)+GAPDH(Millipore MAB374, 1:1000) in Block+0.05% Tween 20. RT 2 h, gentle shaking. Negative control: cells plus secondary antibodies (no primary antibodies); e. wash×4 with PBS +0.05-0.1% Tween 20, gentel shaking; f. anti-rabbit-680 and anti-mouse-800 (both 1:1000 in LiCor block +0.05% Tween20, RT 1 h, gentle shaking, no light. LI-COR: 0.2% to reduce background; g. wash×4 with PBS+0.05% Tween 20, gental shaking; h. add 100 μL or 25 μL of PBS to each well and read on CLX plate reader. The relative ER percentage in treated cells were obtained by comparing the values of treated wells to those in untreated and DMSO-treated wells as 100%.

Chain of ER (P03372 whole entry): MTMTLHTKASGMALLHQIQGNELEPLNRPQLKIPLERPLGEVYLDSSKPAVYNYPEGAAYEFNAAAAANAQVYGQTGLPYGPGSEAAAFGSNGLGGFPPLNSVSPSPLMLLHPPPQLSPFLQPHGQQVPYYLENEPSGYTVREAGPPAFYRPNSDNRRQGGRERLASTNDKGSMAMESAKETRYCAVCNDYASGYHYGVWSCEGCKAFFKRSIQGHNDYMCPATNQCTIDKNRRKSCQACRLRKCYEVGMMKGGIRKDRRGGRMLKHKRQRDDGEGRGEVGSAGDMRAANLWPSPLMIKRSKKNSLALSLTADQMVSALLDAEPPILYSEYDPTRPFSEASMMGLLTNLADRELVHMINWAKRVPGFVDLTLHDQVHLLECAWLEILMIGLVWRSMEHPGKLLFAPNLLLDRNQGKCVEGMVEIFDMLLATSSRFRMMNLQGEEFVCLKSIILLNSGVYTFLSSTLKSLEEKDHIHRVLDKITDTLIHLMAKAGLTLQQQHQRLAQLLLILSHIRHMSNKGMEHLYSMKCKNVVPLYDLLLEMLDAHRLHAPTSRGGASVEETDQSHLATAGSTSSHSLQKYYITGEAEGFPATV

A word on the IC50: it is the midpoint of a concentration-inhibition curve. As usually defined, the DC50 is the concentration at which degradation of the target reaches its halfway point. In the case of `C[C@@H]1Cc2c([nH]c3ccccc23)[C@@H](c2c(F)cc(N3CCC(CN4CCN5c6ccc7c(c6OC[C@H]5C4)CN(C4CCC(=O)NC4=O)C7=O)CC3)cc2F)N1CC(C)(C)F` (mixture of isomers) [Compound B257, 3-((RS)-7-((1-(3,5-difluoro-4-((1R,3R)-2-(2-fluoro-2-methylpropyl)-3-methyl-2,3,4,9-tetrahydro-1H-pyrido[3,4-b]indol-1-yl)phenyl)piperidin-4-yl)methyl)-1-oxo-1,3,5,5a,6,7,8,9-octahydro-2H-pyrazino[1′,2′:4,5][1,4]oxazino[2,3-e]isoindol-2-yl)piperidine-2,6-dione], in test [1] (96 h), the IC50 is below 1 nM. Moreover, the DC50 in test [2] lay within 10 to 100 nM.

Turning to `C[C@@H]1Cc2c([nH]c3ccccc23)[C@@H](c2c(F)cc(N3CCC(CN4CCN5c6ccc7c(c6OC[C@H]5C4)CN(C4CCC(=O)NC4=O)C7=O)CC3)cc2F)N1CC(C)(C)F` (mixture of isomers) [Compound B259, 3-((RS)-7-((1-(3,5-difluoro-4-((1R,3R)-2-(2-fluoro-2-methylpropyl)-3-methyl-2,3,4,9-tetrahydro-1H-pyrido[3,4-b]indol-1-yl)phenyl)piperidin-4-yl)methyl)-1-oxo-1,3,5,5a,6,7,8,9-octahydro-2H-pyrazino[1′,2′:4,5][1,4]oxazino[2,3-e]isoindol-2-yl)piperidine-2,6-dione], the IC50 in test [1] was below 1 nM. In addition, the half-maximal degradation concentration (DC50) in test [2] is above 100 nM.

For the compound `C[C@@H]1Cc2c([nH]c3ccccc23)[C@@H](c2cnc(N3CCC(OCCN4CCN5c6cc7c(cc6OC[C@@H]5C4)C(=O)N([C@H]4CCC(=O)NC4=O)C7)CC3)nc2)N1CC(F)F` [Compound 1B24, (S)-3-((S)-3-(2-((1-(5-((1R,3R)-2-(2,2-difluoroethyl)-3-methyl-2,3,4,9-tetrahydro-1H-pyrido[3,4-b]indol-1-yl)pyrimidin-2-yl)piperidin-4-yl)oxy)ethyl)-8-oxo-1,2,3,4,4a,5,8,10-octahydro-9H-pyrazino[1,2′:4,5][1,4]oxazino[2,3-f]isoindol-9-yl)piperidine-2,6-dione], the concentration for half-maximal inhibition (IC50) in test [1] (96 h) fell in the range of 1 to 10 nM. Besides, in test [2], the half-maximal degradation concentration (DC50) fell in the range of 10 to 100 nM.

Regarding `C[C@@H]1Cc2c([nH]c3ccccc23)[C@@H](c2c(F)cc(-c3ncc(C(=O)N4CCN5c6cc7c(cc6OC[C@@H]5C4)C(=O)N([C@H]4CCC(=O)NC4=O)C7)cn3)cc2F)N1CC(F)F` [Compound B117, (S)-3-((S)-3-(2-(4-((1R,3R)-2-(2,2-difluoroethyl)-3-methyl-2,3,4,9-tetrahydro-1H-pyrido[3,4-b]indol-1-yl)-3,5-difluorophenyl)pyrimidine-5-carbonyl)-8-oxo-1,2,3,4,4a,5,8,10-octahydro-9H-pyrazino[1′,2′:4,5][1,4]oxazino[2,3-f]isoindol-9-yl)piperidine-2,6-dione], the IC50 in test [1] (96 h) lay in the range of 1 to 10 nM. The DC50 in test [2] lay in the range of 10 to 100 nM.

As to `C[C@@H]1Cc2c([nH]c3ccccc23)[C@@H](c2c(F)cc(NC3CN(C(=O)CN4CCN5c6cc7c(cc6OC[C@@H]5C4)C(=O)N(C4CCC(=O)NC4=O)C7)C3)cc2F)N1CC(F)(F)CO` (stereo partly drawn) [Compound B118, 3-((S)-3-(2-(3-((4-((1R,3R)-2-(2,2-difluoro-3-hydroxypropyl)-3-methyl-2,3,4,9-tetrahydro-1H-pyrido[3,4-b]indol-1-yl)-3,5-difluorophenyl)amino)azetidin-1-yl)-2-oxoethyl)-8-oxo-1,2,3,4,4a,5,8,10-octahydro-9H-pyrazino[1′,2′:4,5][1,4]oxazino[2,3-f]isoindol-9-yl)piperidine-2,6-dione], the half-inhibitory concentration (IC50) in test [1] (96 h) is 1 to 10 nM. The DC50 in test [2] lay within 10 to 100 nM.

Regarding `C[C@@H]1Cc2c([nH]c3ccccc23)[C@@H](c2c(F)cc(C3CCN(C(=O)CN4CCN5c6cc7c(cc6OC[C@@H]5C4)C(=O)N(C4CCC(=O)NC4=O)C7)CC3)cc2F)N1CC(F)F` (stereo partly drawn) [Compound B119, 3-((S)-3-(2-(4-(4-((1R,3R)-2-(2,2-difluoroethyl)-3-methyl-2,3,4,9-tetrahydro-1H-pyrido[3,4-b]indol-1-yl)-3,5-difluorophenyl)piperidin-1-yl)-2-oxoethyl)-8-oxo-1,2,3,4,4a,5,8,10-octahydro-9H-pyrazino[1′,2′:4,5][1,4]oxazino[2,3-f]isoindol-9-yl)piperidine-2,6-dione], the IC50 in test [1] (96 h) is below 1 nM. The DC50 in test [2] is 10 to 100 nM.

As to `C[C@@H]1Cc2c([nH]c3ccccc23)[C@@H](c2cnc(N3CC4(CCC(CN5CCN6c7cc8c(cc7OC[C@@H]6C5)C(=O)N(C5CCC(=O)NC5=O)C8)CC4)C3)nc2)N1CC(F)F` (stereo partly drawn) [Compound B120, 3-((S)-3-((2-(5-((1R,3R)-2-(2,2-difluoroethyl)-3-methyl-2,3,4,9-tetrahydro-1H-pyrido[3,4-b]indol-1-yl)pyrimidin-2-yl)-2-azaspiro[3.5]nonan-7-yl)methyl)-8-oxo-1,2,3,4,4a,5,8,10-octahydro-9H-pyrazino[1′,2′:4,5][1,4]oxazino[2,3-f]isoindol-9-yl)piperidine-2,6-dione], in test [1] (96 h), the IC50 fell in the range of 1 to 10 nM. Moreover, the DC50 in test [2] lay in the range of 10 to 100 nM.

Take `C[C@@H]1Cc2c([nH]c3ccccc23)[C@@H](c2cnc(N3CCC(CCN4CCN5c6cc7c(cc6OC[C@@H]5C4)C(=O)N(C4CCC(=O)NC4=O)C7)CC3)nc2)N1CC(F)F` (stereo partly drawn) [Compound B121, 3-((S)-3-(2-(1-(5-((1R,3R)-2-(2,2-difluoroethyl)-3-methyl-2,3,4,9-tetrahydro-1H-pyrido[3,4-b]indol-1-yl)pyrimidin-2-yl)piperidin-4-yl)ethyl)-8-oxo-1,2,3,4,4a,5,8,10-octahydro-9H-pyrazino[1′,2′:4,5][1,4]oxazino[2,3-f]isoindol-9-yl)piperidine-2,6-dione]: in test [1] (96 h), the IC50 was in the range of 1 to 10 nM. For the same compound, the DC50 in test [2] is below 10 nM.

For `C[C@@H]1Cc2c([nH]c3ccccc23)[C@@H](c2cnc(N3CC[C@H](CCN4CCN5c6cc7c(cc6OC[C@@H]5C4)C(=O)N(C4CCC(=O)NC4=O)C7)C3)nc2)N1CC(F)F` (stereo partly drawn) [Compound B122, 3-((S)-3-(2-((S)-1-(5-((1R,3R)-2-(2,2-difluoroethyl)-3-methyl-2,3,4,9-tetrahydro-1H-pyrido[3,4-b]indol-1-yl)pyrimidin-2-yl)pyrrolidin-3-yl)ethyl)-8-oxo-1,2,3,4,4a,5,8,10-octahydro-9H-pyrazino[1′,2′:4,5][1,4]oxazino[2,3-f]isoindol-9-yl)piperidine-2,6-dione], the IC50 in test [1] (96 h) was 1 to 10 nM. The DC50 in test [2] lay within 10 to 100 nM.

As for `C[C@@H]1Cc2c([nH]c3ccccc23)[C@@H](c2cnc(N3CCC(OCCN4CCN5c6cc7c(cc6OC[C@@H]5C4)C(=O)N([C@@H]4CCC(=O)NC4=O)C7)CC3)nc2)N1CC(F)F` [Compound B123, (R)-3-((S)-3-(2-((1-(5-((1R,3R)-2-(2,2-difluoroethyl)-3-methyl-2,3,4,9-tetrahydro-1H-pyrido[3,4-b]indol-1-yl)pyrimidin-2-yl)piperidin-4-yl)oxy)ethyl)-8-oxo-1,2,3,4,4a,5,8,10-octahydro-9H-pyrazino[1′,2′:4,5][1,4]oxazino[2,3-f]isoindol-9-yl)piperidine-2,6-dione], in test [1] (96 h), the IC50 was in the range of 1 to 10 nM. Further, the DC50 in test [2] was 10 to 100 nM.

Regarding `C[C@@H]1Cc2c([nH]c3ccccc23)[C@@H](c2cnc(N3CC4(CCC(CN5CCN6c7ccc8c(c7N(C)C[C@@H]6C5)CN(C5CCC(=O)NC5=O)C8=O)CC4)C3)nc2)N1CC(F)F` (stereo partly drawn) [Compound B125, 3-((S)-7-((2-(5-((1R,3R)-2-(2,2-difluoroethyl)-3-methyl-2,3,4,9-tetrahydro-1H-pyrido[3,4-b]indol-1-yl)pyrimidin-2-yl)-2-azaspiro[3.5]nonan-7-yl)methyl)-4-methyl-1-oxo-3,4,5,5a,6,7,8,9-octahydropyrazino[1,2-a]pyrrolo[3,4-f]quinoxalin-2(1H)-yl)piperidine-2,6-dione], in test [1] (96 h), the IC50 is above 10 nM. Further, the DC50 in test [2] was in the range of 10 to 100 nM.

Values taken from patent US20260007681A1, “INDOLE DERIVATIVES AS ESTROGEN RECEPTOR DEGRADERS” (REGENTS OF THE UNIVERSITY OF MICHIGAN, priority 2022, published 2026).
